# The supplement of paper PMC10627819
# What was measured:
# Assay in all cases: Bliss interaction score (quartile over a dose matrix) (fitness difference); higher = more antagonism (negative = synergy)
# S. aureus Newman = tested on: S. aureus Newman
# Summary of the method: (§1)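 Growth in each well was taken as OD595 at entry into stationary phase. Dividing by the plate's robust no-drug mean and capping at 1 gave fitness, and single-drug fitness was inferred from the combination data. The Bliss score, observed minus product-expected fitness, is summarised by quartiles over technical, biological and donor/recipient replicates.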
# B. subtilis 168 = tested on: B. subtilis 168
# Summary of the method: as §1
# S. aureus DSM 20231 = tested on: S. aureus DSM 20231
# Summary of the method: as §1
# S. pneumoniae D39V = tested on: S. pneumoniae D39V
# Summary of the method: as §1
# 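Also: first quartile when negative (synergy) and third quartile when positive (antagonism).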
SMILES,Bliss interaction score (S. aureus Newman),Bliss interaction score (B. subtilis 168),Bliss interaction score (S. aureus DSM 20231),Bliss interaction score (S. pneumoniae D39V),Bliss interaction score (S. aureus Newman; main component drawn),Bliss interaction score (B. subtilis 168; main component drawn),Bliss interaction score (S. aureus DSM 20231; main component drawn),Bliss interaction score (S. pneumoniae D39V; main component drawn)
CCCCCCCCCC(=O)N[C@@H](Cc1c[nH]c2ccccc12)C(=O)N[C@H](CC(N)=O)C(=O)N[C@@H](CC(=O)O)C(=O)N[C@@H]1C(=O)NCC(=O)N[C@@H](CCCN)C(=O)N[C@@H](CC(=O)O)C(=O)N[C@H](C)C(=O)N[C@@H](CC(=O)O)C(=O)NCC(=O)N[C@H](CO)C(=O)N[C@@H]([C@H](C)CC(=O)O)C(=O)N[C@@H](CC(=O)c2ccccc2N)C(=O)O[C@@H]1C [Daptomycin] + CC[C@H]1OC(=O)[C@H](C)[C@@H](O[C@H]2C[C@@](C)(OC)[C@@H](O)[C@H](C)O2)[C@H](C)[C@@H](O[C@@H]2O[C@H](C)C[C@H](N(C)C)[C@H]2O)[C@](C)(O)C[C@@H](C)C(=O)[C@H](C)[C@@H](O)[C@]1(C)O [Erythromycin],-0.034,0.102,0.0418,-0.0815,,,,
CCCCCCCCCC(=O)N[C@@H](Cc1c[nH]c2ccccc12)C(=O)N[C@H](CC(N)=O)C(=O)N[C@@H](CC(=O)O)C(=O)N[C@@H]1C(=O)NCC(=O)N[C@@H](CCCN)C(=O)N[C@@H](CC(=O)O)C(=O)N[C@H](C)C(=O)N[C@@H](CC(=O)O)C(=O)NCC(=O)N[C@H](CO)C(=O)N[C@@H]([C@H](C)CC(=O)O)C(=O)N[C@@H](CC(=O)c2ccccc2N)C(=O)O[C@@H]1C [Daptomycin] + CN[C@H](CC(C)C)C(=O)N[C@H]1C(=O)N[C@@H](CC(N)=O)C(=O)N[C@H]2C(=O)N[C@H]3C(=O)N[C@H](C(=O)N[C@H](C(=O)O)c4cc(O)cc(O)c4-c4cc3ccc4O)[C@H](O[C@H]3C[C@](C)(N)[C@@H](O)[C@H](C)O3)c3ccc(c(Cl)c3)Oc3cc2cc(c3O[C@@H]2O[C@H](CO)[C@@H](O)[C@H](O)[C@H]2O[C@H]2C[C@](C)(NCc3ccc(-c4ccc(Cl)cc4)cc3)[C@@H](O)[C@H](C)O2)Oc2ccc(cc2Cl)[C@H]1O [Oritavancin],0.0913,-0.0305,0.0891,0.0853,,,,
CCCCCCCCCC(=O)N[C@@H](Cc1c[nH]c2ccccc12)C(=O)N[C@H](CC(N)=O)C(=O)N[C@@H](CC(=O)O)C(=O)N[C@@H]1C(=O)NCC(=O)N[C@@H](CCCN)C(=O)N[C@@H](CC(=O)O)C(=O)N[C@H](C)C(=O)N[C@@H](CC(=O)O)C(=O)NCC(=O)N[C@H](CO)C(=O)N[C@@H]([C@H](C)CC(=O)O)C(=O)N[C@@H](CC(=O)c2ccccc2N)C(=O)O[C@@H]1C [Daptomycin] + CO[C@@]12[C@H](COC(N)=O)C3=C(C(=O)C(C)=C(N)C3=O)N1C[C@@H]1N[C@@H]12 [MitomycinC],-0.0398,0.0997,0.0739,-0.0769,,,,
CCCCCCCCCC(=O)N[C@@H](Cc1c[nH]c2ccccc12)C(=O)N[C@H](CC(N)=O)C(=O)N[C@@H](CC(=O)O)C(=O)N[C@@H]1C(=O)NCC(=O)N[C@@H](CCCN)C(=O)N[C@@H](CC(=O)O)C(=O)N[C@H](C)C(=O)N[C@@H](CC(=O)O)C(=O)NCC(=O)N[C@H](CO)C(=O)N[C@@H]([C@H](C)CC(=O)O)C(=O)N[C@@H](CC(=O)c2ccccc2N)C(=O)O[C@@H]1C [Daptomycin] + Oc1cc(Cl)ccc1Oc1ccc(Cl)cc1Cl [Triclosan],-0.0264,-0.0488,0.0576,0.0768,,,,
C[C@H]1COc2c(N3CCN(C)CC3)c(F)cc3c(=O)c(C(=O)O)cn1c23 [Levofloxacin] + CC1(C)S[C@@H]2[C@H](NC(=O)Cc3ccccc3)C(=O)N2[C@H]1C(=O)O [PenicillinG],-0.0602,0.0528,0.0432,-0.103,,,,
C[C@H]1COc2c(N3CCN(C)CC3)c(F)cc3c(=O)c(C(=O)O)cn1c23 [Levofloxacin] + CCCCCCCCCC(=O)N[C@@H]1[C@H]([C@@H]([C@H](O[C@H]1OC2=C3C=C4C=C2OC5=C(C=C(C=C5)[C@H]([C@H]6C(=O)N[C@@H](C7=C(C(=CC(=C7)O)OC8[C@H]([C@H]([C@@H]([C@H](O8)CO)O)O)O)C9=C(C=CC(=C9)[C@H](C(=O)N6)NC(=O)[C@@H]4NC(=O)[C@@H]1C2=CC(=CC(=C2)OC2=C(C=CC(=C2)[C@H](C(=O)N[C@H](CC2=CC(=C(O3)C=C2)Cl)C(=O)N1)N)O)O)O)C(=O)O)O[C@H]1[C@@H]([C@H]([C@@H]([C@H](O1)CO)O)O)NC(=O)C)Cl)CO)O)O [Teicoplanin],,,,,-0.0552,0.0334,-0.0673,-0.0681
C[C@H]1COc2c(N3CCN(C)CC3)c(F)cc3c(=O)c(C(=O)O)cn1c23 [Levofloxacin] + CC[C@H]1OC(=O)[C@H](C)C(=O)[C@H](C)[C@@H](O[C@@H]2O[C@H](C)C[C@H](N(C)C)[C@H]2O)[C@](C)(OC)C[C@@H](C)C(=O)[C@H](C)[C@H]2N(CCCCn3cnc(-c4cccnc4)c3)C(=O)O[C@]12C [Telithromycin],0.0408,0.0654,0.0361,0.0737,,,,
C[C@H]1COc2c(N3CCN(C)CC3)c(F)cc3c(=O)c(C(=O)O)cn1c23 [Levofloxacin] + CN[C@H](CC(C)C)C(=O)N[C@H]1C(=O)N[C@@H](CC(N)=O)C(=O)N[C@H]2C(=O)N[C@H]3C(=O)N[C@H](C(=O)N[C@H](C(=O)O)c4cc(O)cc(O)c4-c4cc3ccc4O)[C@H](O[C@H]3C[C@](C)(N)[C@@H](O)[C@H](C)O3)c3ccc(c(Cl)c3)Oc3cc2cc(c3O[C@@H]2O[C@H](CO)[C@@H](O)[C@H](O)[C@H]2O[C@H]2C[C@](C)(NCc3ccc(-c4ccc(Cl)cc4)cc3)[C@@H](O)[C@H](C)O2)Oc2ccc(cc2Cl)[C@H]1O [Oritavancin],0.0454,0.031,0.0291,-0.0616,,,,
C[C@H]1COc2c(N3CCN(C)CC3)c(F)cc3c(=O)c(C(=O)O)cn1c23 [Levofloxacin] + CO[C@@]12[C@H](COC(N)=O)C3=C(C(=O)C(C)=C(N)C3=O)N1C[C@@H]1N[C@@H]12 [MitomycinC],0.0429,0.0422,0.0462,-0.0941,,,,
C[C@H]1COc2c(N3CCN(C)CC3)c(F)cc3c(=O)c(C(=O)O)cn1c23 [Levofloxacin] + Oc1cc(Cl)ccc1Oc1ccc(Cl)cc1Cl [Triclosan],-0.0181,0.0373,-0.0551,0.054,,,,
CN(C)C(=O)C(CCN1CCC(O)(c2ccc(Cl)cc2)CC1)(c1ccccc1)c1ccccc1 [Loperamide] + CC1(C)S[C@@H]2[C@H](NC(=O)Cc3ccccc3)C(=O)N2[C@H]1C(=O)O [PenicillinG],-0.068,0.0464,-0.14,-0.249,,,,
CN(C)C(=O)C(CCN1CCC(O)(c2ccc(Cl)cc2)CC1)(c1ccccc1)c1ccccc1 [Loperamide] + CCCCCCCCCC(=O)N[C@@H]1[C@H]([C@@H]([C@H](O[C@H]1OC2=C3C=C4C=C2OC5=C(C=C(C=C5)[C@H]([C@H]6C(=O)N[C@@H](C7=C(C(=CC(=C7)O)OC8[C@H]([C@H]([C@@H]([C@H](O8)CO)O)O)O)C9=C(C=CC(=C9)[C@H](C(=O)N6)NC(=O)[C@@H]4NC(=O)[C@@H]1C2=CC(=CC(=C2)OC2=C(C=CC(=C2)[C@H](C(=O)N[C@H](CC2=CC(=C(O3)C=C2)Cl)C(=O)N1)N)O)O)O)C(=O)O)O[C@H]1[C@@H]([C@H]([C@@H]([C@H](O1)CO)O)O)NC(=O)C)Cl)CO)O)O [Teicoplanin],,,,,-0.0955,0.0883,-0.114,-0.0953
CN(C)C(=O)C(CCN1CCC(O)(c2ccc(Cl)cc2)CC1)(c1ccccc1)c1ccccc1 [Loperamide] + CC[C@H]1OC(=O)[C@H](C)C(=O)[C@H](C)[C@@H](O[C@@H]2O[C@H](C)C[C@H](N(C)C)[C@H]2O)[C@](C)(OC)C[C@@H](C)C(=O)[C@H](C)[C@H]2N(CCCCn3cnc(-c4cccnc4)c3)C(=O)O[C@]12C [Telithromycin],-0.024,0.0814,0.0619,0.0977,,,,
CN(C)C(=O)C(CCN1CCC(O)(c2ccc(Cl)cc2)CC1)(c1ccccc1)c1ccccc1 [Loperamide] + CN[C@H](CC(C)C)C(=O)N[C@H]1C(=O)N[C@@H](CC(N)=O)C(=O)N[C@H]2C(=O)N[C@H]3C(=O)N[C@H](C(=O)N[C@H](C(=O)O)c4cc(O)cc(O)c4-c4cc3ccc4O)[C@H](O[C@H]3C[C@](C)(N)[C@@H](O)[C@H](C)O3)c3ccc(c(Cl)c3)Oc3cc2cc(c3O[C@@H]2O[C@H](CO)[C@@H](O)[C@H](O)[C@H]2O[C@H]2C[C@](C)(NCc3ccc(-c4ccc(Cl)cc4)cc3)[C@@H](O)[C@H](C)O2)Oc2ccc(cc2Cl)[C@H]1O [Oritavancin],-0.062,0.0335,-0.11,-0.0409,,,,
CN(C)C(=O)C(CCN1CCC(O)(c2ccc(Cl)cc2)CC1)(c1ccccc1)c1ccccc1 [Loperamide] + CO[C@@]12[C@H](COC(N)=O)C3=C(C(=O)C(C)=C(N)C3=O)N1C[C@@H]1N[C@@H]12 [MitomycinC],-0.031,0.0277,0.101,0.105,,,,
CN(C)C(=O)C(CCN1CCC(O)(c2ccc(Cl)cc2)CC1)(c1ccccc1)c1ccccc1 [Loperamide] + Oc1cc(Cl)ccc1Oc1ccc(Cl)cc1Cl [Triclosan],0.0213,0.0255,-0.0746,-0.179,,,,
CCN(CC)CCOC(=O)c1ccc(N)cc1 [Procaine] + C/C(=C\C(=O)OCCCCCCCCC(=O)O)C[C@@H]1OC[C@H](C[C@@H]2O[C@H]2[C@@H](C)[C@H](C)O)[C@@H](O)[C@H]1O [Pseudomonic acid],0.0207,0.0611,0.0122,-0.0844,,,,
CCN(CC)CCOC(=O)c1ccc(N)cc1 [Procaine] + CC[C@H]1OC(=O)[C@H](C)C(=O)[C@H](C)[C@@H](O[C@@H]2O[C@H](C)C[C@H](N(C)C)[C@H]2O)[C@](C)(OC)C[C@@H](C)C(=O)[C@H](C)[C@H]2N(CCCCn3cnc(-c4cccnc4)c3)C(=O)O[C@]12C [Telithromycin],0.0289,-0.0224,-0.0287,0.0708,,,,
CCN(CC)CCOC(=O)c1ccc(N)cc1 [Procaine] + Oc1cc(Cl)ccc1Oc1ccc(Cl)cc1Cl [Triclosan],-0.0125,0.0507,0.0864,-0.0644,,,,
Cn1nnc(-c2ccc(-c3ccc(N4C[C@H](CO)OC4=O)cc3F)cn2)n1 [Tedizolid] + CCCCCCCCCC(=O)N[C@@H]1[C@H]([C@@H]([C@H](O[C@H]1OC2=C3C=C4C=C2OC5=C(C=C(C=C5)[C@H]([C@H]6C(=O)N[C@@H](C7=C(C(=CC(=C7)O)OC8[C@H]([C@H]([C@@H]([C@H](O8)CO)O)O)O)C9=C(C=CC(=C9)[C@H](C(=O)N6)NC(=O)[C@@H]4NC(=O)[C@@H]1C2=CC(=CC(=C2)OC2=C(C=CC(=C2)[C@H](C(=O)N[C@H](CC2=CC(=C(O3)C=C2)Cl)C(=O)N1)N)O)O)O)C(=O)O)O[C@H]1[C@@H]([C@H]([C@@H]([C@H](O1)CO)O)O)NC(=O)C)Cl)CO)O)O [Teicoplanin],,,,,0.0811,0.065,-0.083,0.295
Cn1nnc(-c2ccc(-c3ccc(N4C[C@H](CO)OC4=O)cc3F)cn2)n1 [Tedizolid] + CC[C@H]1OC(=O)[C@H](C)C(=O)[C@H](C)[C@@H](O[C@@H]2O[C@H](C)C[C@H](N(C)C)[C@H]2O)[C@](C)(OC)C[C@@H](C)C(=O)[C@H](C)[C@H]2N(CCCCn3cnc(-c4cccnc4)c3)C(=O)O[C@]12C [Telithromycin],-0.0897,-0.0463,-0.0684,-0.0527,,,,
Cn1nnc(-c2ccc(-c3ccc(N4C[C@H](CO)OC4=O)cc3F)cn2)n1 [Tedizolid] + CN(C)c1cc(NC(=O)CNC(C)(C)C)c(O)c2c1C[C@H]1C[C@H]3[C@H](N(C)C)C(O)=C(C(N)=O)C(=O)[C@@]3(O)C(O)=C1C2=O [Tigecycline],0.0453,-0.0434,-0.107,-0.0764,,,,
